Data: ChEMBL document CHEMBL1141412, “Search for cell motility and angiogenesis inhibitors with potential anticancer activity: beauvericin and other constituents of two endophytic strains of Fusarium oxysporum” (J Nat Prod, 2007)
The source made the active and inactive calls. The rule behind the calls is not given here.

Legend:
MIA PaCa-2 [1] = experiment: Cytotoxicity against human MIAPaCa2 cells at 2 ug/mL after 72 hrs by MTT assay; format: cell-based; settings: mia paca-2, 72 h
MCF7 [2] = experiment: Cytotoxicity against human MCF7 cells at 2 ug/mL after 72 hrs by MTT assay; format: cell-based; settings: mcf7, 72 h
SF-268 [3] = experiment: Cytotoxicity against human SF268 cells at 2 ug/mL after 72 hrs by MTT assay; format: functional, cell-based
NCI-H460 [4] = experiment: Cytotoxicity against human NCI-H460 cells at 4 ug/mL after 72 hrs by MTT assay; format: cell-based; settings: nci-h460, 72 h
NCI-H460 [5] = experiment: Cytotoxicity against human NCI-H460 cells at 2 ug/mL after 72 hrs by MTT assay; format: cell-based; settings: nci-h460, 72 h
MCF7 [6] = experiment: Cytotoxicity against human MCF7 cells at 4 ug/mL after 72 hrs by MTT assay; format: cell-based; settings: mcf7, 72 h
SF-268 [7] = experiment: Cytotoxicity against human SF268 cells at 4 ug/mL after 72 hrs by MTT assay; format: functional, cell-based
MIA PaCa-2 [8] = experiment: Cytotoxicity against human MIAPaCa2 cells at 4 ug/mL after 72 hrs by MTT assay; format: cell-based; settings: mia paca-2, 72 h
[9] = Antiangiogenic activity in HUVEC-2 cells assessed as inhibition of endothelial cell network formation after 16 hrs; format: functional, cell-based; settings: Homo sapiens
MDA-MB-231 = experiment: Inhibition of cell proliferation in MDA-MB-231 cells after 40 hrs by MTT assay; format: functional, cell-based; settings: Homo sapiens, MDA-MB-231, 40 h
[10] = Inhibition of cell proliferation in PC3M cells after 20 hrs by MTT assay; format: functional, cell-based; settings: Homo sapiens, PC-3M
HUVEC = experiment: Antiangiogenic activity in HUVEC-2 cells assessed as inhibition of endothelial cell network formation after 16 hrs at 3 uM; format: functional, cell-based; settings: Homo sapiens
MCF7 [11] = experiment: Cytotoxicity against human MCF7 cells after 72 hrs by MTT assay; format: cell-based; settings: MCF7, 72 h
SF-268 [12] = experiment: Cytotoxicity against human SF268 cells after 72 hrs by MTT assay; format: functional, cell-based; settings: SF-268, 72 h
MIA PaCa-2 [13] = experiment: Cytotoxicity against human MIAPaCa2 cells after 72 hrs by MTT assay; format: cell-based; settings: MIA PaCa-2, 72 h
NCI-H460 [14] = experiment: Cytotoxicity against human NCI-H460 cells after 72 hrs by MTT assay; format: cell-based; settings: NCI-H460, 72 h

In the case of `COC1=CC(=O)c2c(cc3oc4cc(OC)cc(C)c4c(=O)c3c2O)C1=O`, the Activity (MIA PaCa-2 [1]) is reported as “Not Active”, the Activity (MCF7 [2]) is reported as “Not Active” and the Activity (SF-268 [3]) is reported as “inactive”. For the same compound, the Activity (NCI-H460 [4]) was “Not Active”, the Activity (NCI-H460 [5]) was “Not Active” and the Activity (MCF7 [6]) was “Not Active”. The Activity (SF-268 [7]) was “inactive” and the Activity (MIA PaCa-2 [8]) was “Not Active”.
Compound `CC(C)[C@@H]1OC(=O)[C@@H](Cc2ccccc2)N(C)C(=O)[C@H](C(C)C)OC(=O)[C@@H](Cc2ccccc2)N(C)C(=O)[C@H](C(C)C)OC(=O)[C@@H](Cc2ccccc2)N(C)C1=O` [BEAUVERICIN] has an IC25 [9] of 5 µM, an IC50 [9] of 7.5 µM and an IC25 (MDA-MB-231) of 6.4 µM. The IC50 (MDA-MB-231) was 7.5 µM, the IC25 [10] was 2.3 µM and the IC50 [10] was 3.8 µM. For the same compound, the Activity (HUVEC) was “Active”, the IC50 (MCF7 [11]) was 1.81 µM and the IC50 (SF-268 [12]) was 2.29 µM. For the same compound, the IC50 (MIA PaCa-2 [13]) was 1.66 µM and the IC50 (NCI-H460 [14]) was 1.41 µM.
In the case of `COC1=CC(=O)c2c(c(O)c3oc4cc(OC)cc(C)c4c(=O)c3c2O)C1=O` [BIKAVERIN], the IC50 (MCF7 [11]) is reported as 0.42 µM, the IC50 (SF-268 [12]) is reported as 0.38 µM and the IC50 (MIA PaCa-2 [13]) is reported as 0.26 µM. For the same compound, the IC50 (NCI-H460 [14]) was 0.43 µM.
For `COc1cccc2c1C(=O)c1c(O)c3c(c(O)c1C2=O)C[C@@](O)(C(=O)CO)C[C@@H]3O[C@H]1C[C@H](N)[C@H](O)[C@H](C)O1` [DOXORUBICIN], the IC50 (SF-268 [12]) was 0.04 µM, the IC50 (MIA PaCa-2 [13]) was 0.05 µM and the IC50 (NCI-H460 [14]) was 0.01 µM.
